Assay results reported in the supplement of paper PMC10307832.

Experiments:
Assay in all cases: relative viability (nuclei count vs DMSO), 5 days (fraction); higher = more cells survive
Selumetinib + Tozasertib = compound: Cn1cnc2c(F)c(Nc3ccc(Br)cc3Cl)c(C(=O)NOCCO)cc21 [Selumetinib] + Cc1cc(Nc2cc(N3CCN(C)CC3)nc(Sc3ccc(NC(=O)C4CC4)cc3)n2)n[nH]1 [Tozasertib] (partner 0.1 µM)
How it was run: (§1)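 The day after seeding in 1536-well plates, lung cancer cell lines were treated by pin tool with a single drug, or with a fixed anchor-drug dose together with five library-drug doses (not always all listed) in √10 steps. After 5 days, a combined fix-and-stain solution (final 0.05% Triton X-100, 1% formaldehyde, 1 ug/ml Hoechst) was added. Nuclei counted on 4× images gave relative viability as treated counts over vehicle counts, reported as the median of duplicate plates.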

Selumetinib + Alpelisib = compound: Cn1cnc2c(F)c(Nc3ccc(Br)cc3Cl)c(C(=O)NOCCO)cc21 [Selumetinib] + Cc1nc(NC(=O)N2CCC[C@H]2C(N)=O)sc1-c1ccnc(C(C)(C)C(F)(F)F)c1 [Alpelisib] (partner 2 µM)
How it was run: as §1

Selumetinib + Olaparib = compound: Cn1cnc2c(F)c(Nc3ccc(Br)cc3Cl)c(C(=O)NOCCO)cc21 [Selumetinib] + O=C(c1cc(Cc2n[nH]c(=O)c3ccccc23)ccc1F)N1CCN(C(=O)C2CC2)CC1 [Olaparib] (partner 8 µM)
How it was run: as §1

Venetoclax + Lapatinib = compound: CC1(C)CCC(CN2CCN(c3ccc(C(=O)NS(=O)(=O)c4ccc(NCC5CCOCC5)c([N+](=O)[O-])c4)c(Oc4cnc5[nH]ccc5c4)c3)CC2)=C(c2ccc(Cl)cc2)C1 [Venetoclax] + CS(=O)(=O)CCNCc1ccc(-c2ccc3ncnc(Nc4ccc(OCc5cccc(F)c5)c(Cl)c4)c3c2)o1 [Lapatinib] (partner 2 µM)
How it was run: as §1

Cell Line	relative viability (Selumetinib + Tozasertib; first compound 0.02 µM)	relative viability (Selumetinib + Tozasertib; first compound 0.06325 µM)	relative viability (Selumetinib + Tozasertib; first compound 0.2 µM)	relative viability (Selumetinib + Tozasertib; first compound 0.6325 µM)	relative viability (Selumetinib + Alpelisib; first compound 0.02 µM)	relative viability (Selumetinib + Alpelisib; first compound 0.06325 µM)	relative viability (Selumetinib + Alpelisib; first compound 0.2 µM)	relative viability (Selumetinib + Alpelisib; first compound 0.6325 µM)	relative viability (Selumetinib + Olaparib; first compound 0.02 µM)	relative viability (Selumetinib + Olaparib; first compound 0.06325 µM)	relative viability (Selumetinib + Olaparib; first compound 0.2 µM)	relative viability (Selumetinib + Olaparib; first compound 0.6325 µM)	relative viability (Venetoclax + Lapatinib; first compound 0.01 µM)	relative viability (Venetoclax + Lapatinib; first compound 0.03162 µM)	relative viability (Venetoclax + Lapatinib; first compound 0.1 µM)	relative viability (Venetoclax + Lapatinib; first compound 0.3162 µM)	relative viability (Venetoclax + Lapatinib; first compound 1 µM)
HCC-366	0.127	0.109	0.104	0.0897	0.361	0.273	0.196	0.158	0.415	0.296	0.198	0.19	1.1	1.01	0.933	1.04	0.951
HCC-827	0.42	0.393	0.408	0.361	0.961	0.786	0.863	0.791	0.705	0.672	0.681	0.719	0.234	0.216	0.174	0.191	0.233
HOP-62	0.377	0.317	0.376	0.328	0.86	0.962	0.965	0.465	0.474	0.397	0.421	0.353	1.29	1.12	1.02	1.01	0.896
IA-LM					0.431	0.237	0.216	0.191	1.09	0.531	0.587	0.482	0.849	0.723	0.646	0.897	0.552
LC-2-ad	0.517	0.391	0.393	0.386	0.862	0.82	0.66	0.848	0.8	0.503	0.757	0.672	0.986	0.899	0.876	0.973	0.938
LCLC-97TM1	0.201	0.255	0.216	0.223	0.275	0.25	0.259	0.185	0.292	0.407	0.3	0.19		1	0.579	0.868	0.814
LCLC-103H	0.514	0.458	0.435	0.349	0.851	0.917	0.841	0.874	0.656	0.703	0.66	0.663					
LK-2	0.17	0.189	0.221	0.144	1.01	1.13	0.949	0.985	0.811	0.842	0.818	0.759	0.973	0.99	0.846	0.894	0.767
LOU-NH91	0.648	0.679	0.606	0.534	0.648	0.6	0.577	0.586	0.914	0.845	0.864	0.806	0.757	0.843	0.737	0.778	0.75
LU99A	0.274	0.278	0.266	0.276	0.551	0.501	0.489	0.573	0.253	0.265	0.287	0.267	0.865	1	0.884	0.885	0.986
